According to the NIST ThermoML archive (doi:10.1016/j.jct.2008.02.020):

Details: Liquid, Buoyancy - hydrostatic balance with magnetic suspension - one sinker

Cc1ccc(Cl)cc1Cl [1,3-dichloro-4-methylbenzene]
Details | mass density [kg/m3]
373.15 K, 4135.4 kPa | 1169.29
373.15 K, 5954.6 kPa | 1171.27
373.15 K, 7981.3 kPa | 1173.43
373.15 K, 10128 kPa | 1175.67
373.15 K, 11936 kPa | 1177.54
373.15 K, 14002 kPa | 1179.62
373.15 K, 15987 kPa | 1181.6
373.15 K, 18116 kPa | 1183.68
373.15 K, 19990 kPa | 1185.5
373.15 K, 22002 kPa | 1187.4
373.15 K, 23973 kPa | 1189.24
373.15 K, 26011 kPa | 1191.11
373.15 K, 28050 kPa | 1192.96
373.15 K, 29922 kPa | 1194.64
393.15 K, 100.49 kPa | 1143.03
393.15 K, 1179.5 kPa | 1144.4
393.15 K, 1991.5 kPa | 1145.42
393.15 K, 3926.6 kPa | 1147.8
393.15 K, 5963.8 kPa | 1150.27
393.15 K, 7963.7 kPa | 1152.64
393.15 K, 10152 kPa | 1155.17
393.15 K, 12148 kPa | 1157.43
393.15 K, 14137 kPa | 1159.65
393.15 K, 16116 kPa | 1161.81
393.15 K, 17917 kPa | 1163.75
393.15 K, 20141 kPa | 1166.09
393.15 K, 22096 kPa | 1168.12
393.15 K, 24174 kPa | 1170.23
393.15 K, 26160 kPa | 1172.22
393.15 K, 27968 kPa | 1174
393.15 K, 29927 kPa | 1175.92
413.15 K, 100.59 kPa | 1120.92
413.15 K, 1151.6 kPa | 1122.41
413.15 K, 2145.3 kPa | 1123.81
413.15 K, 3981.3 kPa | 1126.35
413.15 K, 6146.6 kPa | 1129.27
413.15 K, 8164.1 kPa | 1131.92
413.15 K, 10060 kPa | 1134.35
413.15 K, 11927 kPa | 1136.7
413.15 K, 14145 kPa | 1139.43
413.15 K, 16150 kPa | 1141.84
413.15 K, 18124 kPa | 1144.17
413.15 K, 20124 kPa | 1146.49
413.15 K, 22139 kPa | 1148.77
413.15 K, 24073 kPa | 1150.92
413.15 K, 26091 kPa | 1153.13
413.15 K, 29979 kPa | 1157.28
433.15 K, 95.11 kPa | 1098.16
433.15 K, 1136.7 kPa | 1099.85
433.15 K, 2147.7 kPa | 1101.45
433.15 K, 3917.8 kPa | 1104.21
433.15 K, 6150.5 kPa | 1107.59
433.15 K, 8148.5 kPa | 1110.53
433.15 K, 10046 kPa | 1113.26
433.15 K, 12142 kPa | 1116.17
433.15 K, 14151 kPa | 1118.91
433.15 K, 16187 kPa | 1121.62
433.15 K, 18165 kPa | 1124.19
433.15 K, 20168 kPa | 1126.73
433.15 K, 22138 kPa | 1129.18
433.15 K, 24093 kPa | 1131.56
433.15 K, 26057 kPa | 1133.91
433.15 K, 28003 kPa | 1136.2
433.15 K, 29939 kPa | 1138.43
453.15 K, 1198.5 kPa | 1076.81
453.15 K, 2151.7 kPa | 1078.53
453.15 K, 4164.4 kPa | 1082.08
453.15 K, 6169.6 kPa | 1085.47
453.15 K, 8024.4 kPa | 1088.53
453.15 K, 10086 kPa | 1091.85
453.15 K, 12119 kPa | 1094.99
453.15 K, 14144 kPa | 1098.05
453.15 K, 16087 kPa | 1100.89
453.15 K, 19984 kPa | 1106.47
453.15 K, 22044 kPa | 1109.28
453.15 K, 24087 kPa | 1112.01
453.15 K, 26125 kPa | 1114.68
453.15 K, 28000 kPa | 1117.08
453.15 K, 29897 kPa | 1119.49
473.15 K, 1132.5 kPa | 1052.66
473.15 K, 2054.3 kPa | 1054.57
473.15 K, 4181.9 kPa | 1058.81
473.15 K, 5970.9 kPa | 1062.27
473.15 K, 8153.5 kPa | 1066.34
473.15 K, 10138 kPa | 1069.91
473.15 K, 12109 kPa | 1073.33
473.15 K, 14125 kPa | 1073.33
473.15 K, 16133 kPa | 1080.01
473.15 K, 18132 kPa | 1083.19
473.15 K, 20147 kPa | 1086.3
473.15 K, 22083 kPa | 1089.22
473.15 K, 24078 kPa | 1092.15
473.15 K, 26043 kPa | 1094.96
473.15 K, 27886 kPa | 1097.55
473.15 K, 29893 kPa | 1100.31
